Here are results for three compounds from paper PMC8409943, “Study on mechanism of low bioavailability of black tea theaflavins by using Caco-2 cell monolayer” (Drug Delivery, 2021).

In one data set the test system is MRP3. The data set is described as follows: Quantitative real-time PCR, mRNA level of MRP3. It counts as cell-based, Human. Particulars: Caco-2 cells, 200 μM, 2 h, vs control. How it is done:
(§1) Cell culture and treatment were performed as described above in 2.6. Total RNA was extracted from Caco-2 cells by the cell RNA extraction kit, and then reverse-transcribed by the cDNA synthesis kit. Gene amplification and quantitative detection were performed as previously described (Ai et al., [2019]). Target mRNA levels were normalized to β-actin mRNA levels. Data were calculated by the 2^−ΔΔCT method.

Data set [1] relates to P-gp. The data set is described as follows: Quantitative real-time PCR, mRNA level of P-gp. In kind it is cell-based, Human. Particulars: Caco-2 cells, 200 μM, 2 h, vs control. How it is done: as §1
Data set [2] has as its system P-gp. The data set is described as follows: Western blot, protein level of P-gp. It counts as cell-based, Human. The settings on record: Caco-2 cells, 200 μM, 2 h, normalized to β-actin, vs control. How it is done:
Cell lysates were prepared with RIPA lysis buffer. […] Cell protein (50 μg) was loaded onto SDS polyacrylamide gel (5% stacking gel; 8% separating gel) and separated by electrophoresis for 1.5 h at 20 mA. Next, the separated proteins were transferred onto the PVDF membrane in ice bath for 1.5 h at 120 mA, followed by blocking the membrane with 5% nonfat milk in Tris-buffered saline containing 0.1% Tween-20 (TBST) for 1 h at room temperature. After blocking, the blots were incubated overnight at 4 °C with the primary antibody of P-gp, MRP1, MRP2, MRP3, BCRP (1:200) or β-actin (1:40,000), followed by washing with TBST and incubation for 1 h at room temperature with HRP-conjugated goat anti-rabbit (1:3,000). Immunoreactive proteins were visualized by the ECL detection system, band intensity was quantified by Image Lab (Bio-Rad, CA, USA), and the protein contents were normalized to β-actin.

The next data set deals with MRP1. The experiment in a line: Quantitative real-time PCR, mRNA level of MRP1. It counts as cell-based, Human. Particulars: Caco-2 cells, 200 μM, 2 h, vs control. On the procedure: as §1
The test system of the next data set is Caco-2 cells. The data set is described as follows: Intracellular accumulation of theaflavin monomers. Particulars: 200 μM theaflavins, 2 h incubation, 37 °C.
On the set-up of data set [3]: method as in Henning et al., 2006. Particulars: mice treated with decaffeinated black tea (50 mg/g diet) for two weeks; ref Henning et al., 2006; cited from earlier work.
The next data set concerns BCRP. The data set is described as follows: Quantitative real-time PCR, mRNA level of BCRP. Particulars: Caco-2 cells, 200 μM, 2 h, vs control. It counts as cell-based, Human. How it is done:
as §1

For data set [4] the following is noted: 2 h, 200 μM.

Method for Caco-2 cells: Caco-2 cells were seeded at a density of 8 × 10^4 cells per well in 6-well plates (Ni et al., [2020]). After differentiation over a period of 21 days, cells were incubated with 2.0 mL of 200 μM theaflavins at 37 °C. After 2 h incubation, phosphate buffer was added to wash cells in the plate. Then, cell lysates were prepared with RIPA lysis buffer containing 1 mM PMSF as a protease inhibitor and centrifugated at 12,000 rpm for 30 min. Total protein contents were quantified using a BCA estimation kit according to the manufacturer’s instructions (Beyotime). Theaflavins were quantified by HPLC analysis and the intracellular accumulation was expressed as µg theaflavin/mg protein.
Theaflavins were characterized by high performance liquid chromatography (HPLC, Agilent 1100VL, Agilent Technologies Inc., CA, USA). Briefly, samples were extracted with 70% methanol, centrifuged at 685 × g for 10 min, and filtered through a 0.45 μm membrane (Nylon 66). […] Samples were eluted with a gradient of solvent A (100 mL water with 9 mL acetonitrile and 2 mL acetic acid) and B (100 mL acetonitrile with 17.8 mL water and 2 mL acetic acid) as follows: 0–5 min, 95% A; 5–10 min, 90% A; 10–20 min, 70% A; 20–25 min, 65% A; 25–30 min, 70% A; 30–35 min, 100% A. Theaflavins were detected using an ultraviolet detector at a wavelength of 278 nm.

As to `O=C(O[C@@H]1Cc2c(O)cc(O)cc2O[C@@H]1c1cc(O)c(=O)c2c(O)c(O)cc([C@H]3Oc4cc(O)cc(O)c4C[C@H]3O)c2c1)c1cc(O)c(O)c(O)c1` [TF3G, theaflavin-3-gallate], the “increase of mRNA level of MRP3” value with MRP3 is on record as 34.01%. Besides, the “increase of mRNA level of P-gp” value in the data set on P-gp [1] turned out to be 44.45%. In the data set on P-gp [2], the “increase of protein level of P-gp” value is given as 23.94%. In addition, the “increase of mRNA level of MRP1” value in the data set on MRP1 is reported as 154.97%.
On to `O=C(O[C@@H]1Cc2c(O)cc(O)cc2O[C@@H]1c1cc(O)c(O)c2c(=O)c(O)cc([C@H]3Oc4cc(O)cc(O)c4C[C@H]3O)cc12)c1cc(O)c(O)c(O)c1` [TF3’G, theaflavin-3’-gallate], for which the “Contents of theaflavins absorbed in Caco-2 cells” value in the data set on Caco-2 cells is “-”.
For the compound `O=C(O[C@@H]1Cc2c(O)cc(O)cc2O[C@@H]1c1cc(O)c(=O)c2c(O)c(O)cc([C@H]3Oc4cc(O)cc(O)c4C[C@H]3OC(=O)c3cc(O)c(O)c(O)c3)c2c1)c1cc(O)c(O)c(O)c1` [TFDG, theaflavin-3, 3’-digallate], in data set [3], the “amount in tissue samples” value is given as “less than 1 nmol/g tissue”. Besides, the “increase of mRNA level of BCRP” value in the data set with BCRP is listed as 35.49%. The “degraded due to the structural instability” value in data set [4] amounted to 11.6%.
